Laboratory results: patent publication US20250325677A1, “STAT6 DEGRADERS” (Gilead Sciences, Inc., priority 2024, published 2025)

Key:
eotaxin-3 release = assay: Human whole blood eotaxin-3 assay (IL-4 stimulated); type: cell-based; conditions: human whole blood, IL-4 0.4 nM, 48 hours; geometric mean; given for compounds with >80% Emax; read-out: Eotaxin-3 EC50
Experimental: Human Whole Blood Eotaxin-3 Assay
This was a human whole blood assay using recombinant human Interleukin 4 to stimulate the blood and measuring the ability of the test compounds to inhibit eotaxin-3 release. Compounds or media were added to the wells and incubated together with human whole blood for 120 minutes at 37° C. Subsequently, recombinant IL-4 was added at a final concentration of 0.4 nM. The plates were incubated for 48 hours.
Test compounds which inhibited eotaxin-3 release upon stimulation with human IL-4 (E. coli) interfered with the signaling in human whole blood are expected to have activity in human beings. […] The EC50 value indicates at which concentration test compounds were active and in inhibiting the eotaxin-3 release. As eotaxin-3 release is down-stream of STAT6 signaling both STAT6 inhibitors and STAT6 degraders are active in this assay.
The data from the human whole blood eotaxin-3 assay is shown below for Examples 3e27, 3e50, 3e17, and 3e51 (where the effect in % is plotted against the test concentration in M on a log-scale).

STAT6 = STAT6 (Homo sapiens (Human), UniProt P42226); assay: STAT6 degrader assay (HiBiT, HeLa LgBiT clone 4.14); type: cell-based; conditions: HeLa LgBiT clone 4.14, 4-24 h; for Emax: read-out: STAT6 degradation Emax (%); for DC50: geometric mean, given for compounds with >80% Emax, read-out: STAT6 degradation DC50
Sequence of STAT6 (P42226 whole entry): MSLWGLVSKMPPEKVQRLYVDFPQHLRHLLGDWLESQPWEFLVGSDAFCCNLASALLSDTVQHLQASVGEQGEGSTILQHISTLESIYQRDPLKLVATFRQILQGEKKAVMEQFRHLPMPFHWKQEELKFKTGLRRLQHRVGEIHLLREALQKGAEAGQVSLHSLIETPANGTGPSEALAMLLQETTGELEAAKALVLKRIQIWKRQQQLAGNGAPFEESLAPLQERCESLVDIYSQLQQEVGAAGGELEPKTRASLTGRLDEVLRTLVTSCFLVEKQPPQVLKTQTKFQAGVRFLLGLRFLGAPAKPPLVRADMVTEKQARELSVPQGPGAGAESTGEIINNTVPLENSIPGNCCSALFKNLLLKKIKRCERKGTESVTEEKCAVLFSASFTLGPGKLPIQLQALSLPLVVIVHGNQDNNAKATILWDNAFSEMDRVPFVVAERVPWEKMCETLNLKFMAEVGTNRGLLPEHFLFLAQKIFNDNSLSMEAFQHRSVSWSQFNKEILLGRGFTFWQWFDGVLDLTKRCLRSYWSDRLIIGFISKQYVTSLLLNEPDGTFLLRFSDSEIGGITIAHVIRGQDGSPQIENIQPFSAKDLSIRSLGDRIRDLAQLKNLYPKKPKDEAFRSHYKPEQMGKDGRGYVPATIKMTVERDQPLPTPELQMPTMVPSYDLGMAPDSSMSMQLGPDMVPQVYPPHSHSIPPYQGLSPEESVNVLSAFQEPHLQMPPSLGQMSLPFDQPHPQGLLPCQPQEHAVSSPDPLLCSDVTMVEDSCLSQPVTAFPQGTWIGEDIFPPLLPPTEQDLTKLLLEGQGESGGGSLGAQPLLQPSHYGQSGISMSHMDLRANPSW
Procedure, shortened: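 HeLa LgBiT clone 4.14 cells with HiBiT knocked into endogenous STAT6 were treated with compound for 4-24 h at 37° C. Luminescence after Nano-GLO substrate (0.5 h) measured remaining STAT6; 50 μM terfenadine wells defined 100% degradation, and DC50 (nM) was derived.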

Emax (STAT6)	DC50 (STAT6)	SMILES	other results
–	–	CC[C@H]1CN(Cc2ccc3c(c2)n(C)c(=O)n3[C@@H]2CCC(=O)NC2=O)CCN1CC1CCN(C(=O)c2ccc(C3CCN([C@@H](C)c4cc5c(-c6ccc(N)nc6)ccnc5n4C)CC3)cc2)CC1 (single isomer, unassigned) [Example 3e57]	EC50 (eotaxin-3 release): 4.4 nM
–	–	CC[C@H]1CN(Cc2ccc3c(c2)n(C)c(=O)n3[C@H]2CCC(=O)NC2=O)CCN1CC1CCN(C(=O)c2ccc(C3CCN([C@@H](C)c4cc5c(-c6ccc(N)nc6)ccnc5n4C)CC3)cc2)CC1 (single isomer, unassigned) [Example 3e59]	EC50 (eotaxin-3 release): 8.4 nM
–	–	CNc1ccc(-c2ccnc3c2cc([C@H](C)N2CC=C(c4c(C)cc(C(=O)N5CCC(CN6CCN(Cc7ccc8c(c7)C7(CC7)C(=O)N8C7CCC(=O)NC7=O)C[C@@H]6C)CC5)cc4F)CC2)n3C)cn1 (stereo partly drawn) [Example 3h20, 3-(5′-(((S)-4-((1-(3-fluoro-5-methyl-4-(1-((S)-1-(1-methyl-4-(6-(methylamino)pyridin-3-yl)-1H-pyrrolo[2,3-b]pyridin-2-yl)ethyl)-1,2,3,6-tetrahydropyridin-4-yl)benzoyl)piperidin-4-yl)methyl)-3-methylpiperazin-1-yl)methyl)-2′-oxospiro[cyclopropane-1,3′-indolin]-1′-yl)piperidine-2,6-dione]	EC50 (eotaxin-3 release): 3.6 nM
–	–	C[C@H]1CN(Cc2ccc3c(c2)C2(CC2)C(=O)N3C2CCC(=O)NC2=O)CCN1CC1CCN(C(=O)c2ccc(C3CCN([C@@H](C)c4cc5c(-c6ccc(N)nc6)ccnc5n4C)CC3)cc2)CC1 (stereo partly drawn) [Example 3h29, 3-(5′-(((S)-4-((1-(4-(1-((S)-1-(4-(6-aminopyridin-3-yl)-1-methyl-1H-pyrrolo[2,3-b]pyridin-2-yl)ethyl)piperidin-4-yl)benzoyl)piperidin-4-yl)methyl)-3-methylpiperazin-1-yl)methyl)-2′-oxospiro[cyclopropane-1,3′-indolin]-1′-yl)piperidine-2,6-dione]	EC50 (eotaxin-3 release): 2.6 nM
30 to 40%	–	Cn1c(CN2CCC(c3ccc(C(=O)N4CCC(Cn5cc(-c6ccc7c(c6)n(C)c(=O)n7C6CCC(=O)NC6=O)cn5)CC4)cc3)CC2)cc2c(-c3ccc4[nH]ncc4c3)ccnc21 (stereo not shown) [Example 3l3, 3-(5-(1-((1-(4-(1-((4-(1H-indazol-5-yl)-1-methyl-1H-pyrrolo[2,3-b]pyridin-2-yl)methyl)piperidin-4-yl)benzoyl)piperidin-4-yl)methyl)-1H-pyrazol-4-yl)-3-methyl-2-oxo-2,3-dihydro-1H-benzo[d]imidazol-1-yl)piperidine-2,6-dione]	–
–	2.6 nM	Cn1c(CN2CCC(c3ccc(C(=O)N4CCC(CCn5cc(-c6ccc7c(c6)n(C)c(=O)n7C6CCC(=O)NC6=O)cn5)CC4)cc3)CC2)cc2c(-c3ccc4[nH]ncc4c3)ccnc21 (stereo not shown) [Example 3l4, 3-(5-(1-(2-(1-(4-(1-((4-(1H-indazol-5-yl)-1-methyl-1H-pyrrolo[2,3-b]pyridin-2-yl)methyl)-piperidin-4-yl)benzoyl)piperidin-4-yl)ethyl)-1H-pyrazol-4-yl)-3-methyl-2-oxo-2,3-dihydro-1H-benzo[d]imidazol-1-yl)piperidine-2,6-dione]	–
40 to 50%	–	Cn1c(CN2CCC(c3ccc(C(=O)N4CCC(CN5CCN(c6ccc7c(c6)n(C)c(=O)n7C6CCC(=O)NC6=O)CC5)CC4)cc3)CC2)cc2c(-c3ccc(N)nc3)ccnc21 (stereo not shown) [Example 3m1, 3-(5-(4-((1-(4-(1-((4-(6-aminopyridin-3-yl)-1-methyl-1H-pyrrolo[2,3-b]pyridin-2-yl)methyl)-piperidin-4-yl)benzoyl)piperidin-4-yl)methyl)piperazin-1-yl)-3-methyl-2-oxo-2,3-dihydro-1H-benzo[d]imidazol-1-yl)piperidine-2,6-dione]	–
–	1.8 nM	Cn1c(CN2CCC(c3ccc(C(=O)N4CCC(CN5CCN(c6ccc7c(c6)n(C)c(=O)n7C6CCC(=O)NC6=O)CC5)CC4)cc3)CC2)cc2c(-c3ccc4[nH]ncc4c3)ccnc21 (stereo not shown) [Example 3m2, 3-(5-(4-((1-(4-(1-((4-(1H-indazol-5-yl)-1-methyl-1H-pyrrolo[2,3-b]pyridin-2-yl)methyl)-piperidin-4-yl)benzoyl)piperidin-4-yl)methyl)piperazin-1-yl)-3-methyl-2-oxo-2,3-dihydro-1H-benzo[d]imidazol-1-yl)piperidine-2,6-dione]	–
60 to 70%	–	Cn1c(CN2CCC(c3ccc(C(=O)N4CCC(CN5CCN(Cc6ccc7c(c6)oc(=O)n7C6CCC(=O)NC6=O)CC5)CC4)cc3)CC2)cc2c(-c3ccc(N)nc3)ccnc21 (stereo not shown) [Example 3n1, 3-(6-((4-((1-(4-(1-((4-(6-aminopyridin-3-yl)-1-methyl-1H-pyrrolo[2,3-b]pyridin-2-yl)methyl)piperidin-4-yl)benzoyl)piperidin-4-yl)methyl)piperazin-1-yl)methyl)-2-oxobenzo[d]oxazol-3 (2H)-yl)piperidine-2,6-dione]	–
–	1.1 nM	COCc1nc2cc(-c3ccnc4c3cc(CN3CCC(c5ccc(C(=O)N6CCC(CN7CCN(Cc8ccc9c(c8)oc(=O)n9C8CCC(=O)NC8=O)CC7)CC6)cc5)CC3)n4C)ccc2[nH]1 (stereo not shown) [Example 3n2, 3-(6-((4-((1-(4-(1-((4-(2-(methoxymethyl)-1H-benzo[d]imidazol-5-yl)-1-methyl-1H-pyrrolo[2,3-b]pyridin-2-yl)methyl)piperidin-4-yl)benzoyl)piperidin-4-yl)methyl)piperazin-1-yl)methyl)-2-oxobenzo[d]-oxazol-3 (2H)-yl)piperidine-2,6-dione]	–
–	0.1 nM	CN(C(=O)c1ccc(C2CCN(Cc3cc4c(-c5ccc(N)nc5)ccnc4n3C)CC2)cc1)c1ccc(C2CCN(Cc3ccc4c(c3)oc(=O)n4C3CCC(=O)NC3=O)CC2)cc1 (stereo not shown) [Example 3n3, 4-(1-((4-(6-aminopyridin-3-yl)-1-methyl-1H-pyrrolo[2,3-b]pyridin-2-yl)methyl)piperidin-4-yl)-N-(4-(1-((3-(2,6-dioxopiperidin-3-yl)-2-oxo-2,3-dihydrobenzo[d]oxazol-6-yl)methyl)piperidin-4-yl)phenyl)-N-methylbenzamide]	–
–	0.1 nM	COCc1nc2cc(-c3ccnc4c3cc(CN3CCC(c5ccc(C(=O)N(C)c6ccc(C7CCN(Cc8ccc9c(c8)oc(=O)n9C8CCC(=O)NC8=O)CC7)cc6)cc5)CC3)n4C)ccc2[nH]1 (stereo not shown) [Example 3n4, N-(4-(1-((3-(2,6-dioxopiperidin-3-yl)-2-oxo-2,3-dihydrobenzo[d]oxazol-6-yl)methyl)piperidin-4-yl)phenyl)-4-(1-((4-(2-(methoxymethyl)-1H-benzo[d]imidazol-5-yl)-1-methyl-1H-pyrrolo[2,3-b]pyridin-2-yl)methyl)piperidin-4-yl)-N-methylbenzamide]	–
< 20%	–	COCc1nc2cc(-c3ccnc4c3cc(CN3CCC(c5ccc(C(=O)N6CCC(CN7CCN(Cc8ccc9c(c8)n(C8CCC(=O)NC8=O)c(=O)n9C)CC7)CC6)cc5)CC3)n4C)ccc2[nH]1 (stereo not shown) [Example 3o1, 3-(6-((4-((1-(4-(1-((4-(2-(methoxymethyl)-1H-benzo[d]imidazol-5-yl)-1-methyl-1H-pyrrolo[2,3-b]pyridin-2-yl)methyl)piperidin-4-yl)benzoyl)piperidin-4-yl)methyl)piperazin-1-yl)methyl)-3-methyl-2-oxo-2,3-dihydro-1H-benzo[d]imidazol-1-yl)piperidine-2,6-dione]	–
< 20%	–	Cn1c(CN2CCC(c3ccc(C(=O)N4CCC(CN5CCN(Cc6ccc7c(c6)n(C6CCC(=O)NC6=O)c(=O)n7C)CC5)CC4)cc3)CC2)cc2c(-c3ccc(N)nc3)ccnc21 (stereo not shown) [Example 3o2, 3-(6-((4-((1-(4-(1-((4-(6-aminopyridin-3-yl)-1-methyl-1H-pyrrolo[2,3-b]pyridin-2-yl)methyl)piperidin-4-yl)benzoyl)piperidin-4-yl)methyl)piperazin-1-yl)methyl)-3-methyl-2-oxo-2,3-dihydro-1H-benzo[d]imidazol-1-yl)piperidine-2,6-dione]	–
< 20%	–	Cn1c(CN2CCC(c3ccc(C(=O)N4CCC(CN5CCC(c6cccc7c6n(C)c(=O)n7C6CCC(=O)NC6=O)CC5)CC4)cc3)CC2)cc2c(-c3ccc4[nH]ncc4c3)ccnc21 (stereo not shown) [Example 3t1, 3-(4-(1-((1-(4-(1-((4-(1H-indazol-5-yl)-1-methyl-1H-pyrrolo[2,3-b]pyridin-2-yl)methyl)piperidin-4-yl)benzoyl)piperidin-4-yl)methyl)piperidin-4-yl)-3-methyl-2-oxo-2,3-dihydro-1H-benzo[d]imidazol-1-yl)piperidine-2,6-dione]	–
< 20%	–	Cn1c(CN2CCC(c3ccc(C(=O)N4CCC(Cn5cc(-c6cccc7c6n(C)c(=O)n7C6CCC(=O)NC6=O)nn5)CC4)cc3)CC2)cc2c(-c3ccc4[nH]ncc4c3)ccnc21 (stereo not shown) [Example 3t2, 3-(4-(1-((1-(4-(1-((4-(1H-indazol-5-yl)-1-methyl-1H-pyrrolo[2,3-b]pyridin-2-yl)methyl)piperidin-4-yl)benzoyl)piperidin-4-yl)methyl)-1H-1,2,3-triazol-4-yl)-3-methyl-2-oxo-2,3-dihydro-1H-benzo[d]imidazol-1-yl)piperidine-2,6-dione]	–
